Assay results taken from US12163111B2 (priority 2017, dated 2024).
Like-named read-outs stand apart in the source and are kept apart here.

Legend:
[1] = Description: Various materials used to manufacture a cell culture device have been tested. One material used for the cell culture device, PEEK, is a strong plastic polymer that is resistant to wear. PEEK is advantageous in drug testing because it is non-absorbent as opposed to, for example, the commonly used poly(dimethylsiloxane) (PDMS), which is known to retain small hydrophobic molecules, such as nicotine. PEEK has been found not to retain nicotine or NNK, another small hydrophobic molecule. Therefore, the cell culture device is suitable for the testing of drug effects on the tissues housed within the cell culture device without risk of the drug concentration (or concentration of its metabolites) being altered by the material.
PEEK has the advantage of not being absorbent towards small molecules. […] This is important since materials used for commercially available plates such as PDMS are known to trap small hydrophobic molecules.

[2] = PDMS plate, 8 hours incubation at 4° C.

Compound	amount of nicotine remaining in the plate ([1]; 8 h)	absorbance of PEEK towards the molecule (trapping by the material) [1]	amount of nicotine remaining in the plate [2]
CN1CCCC1c1cccnc1 (stereo not shown) [nicotine]	about 100%	not trapped by the material	about 35%
CN(CCCC(=O)c1cccnc1)N=O [NNK, 4-(methylnitrosamino)-1-(3-pyridyl)-1-butanone]		not trapped by the material	
